The NIST ThermoML archive (doi:10.1021/je060139a)

Key:
[1] = xn = mol fraction of the nth substance listed; conditions: Wilhelmy plate method
[2] = refractive index (Na D-line) (dimensionless); xn = mol fraction of the nth substance listed; conditions: 100.5 kPa, Liquid, Standard Abbe refractometry

CCOC(=O)CC(C)C [ethyl 3-methylbutanoate] + CCO
Conditions | refractive index, [2] | surface tension liquid-gas, [1] [mN/m]
288.15 K, x1 = 0.05 | 1.3677 | 23.14
288.15 K, x1 = 0.1 | 1.37142 | 23.26
288.15 K, x1 = 0.15 | 1.37464 | 23.37
288.15 K, x1 = 0.2 | 1.37745 | 23.46
288.15 K, x1 = 0.25 | 1.37993 | 23.55
288.15 K, x1 = 0.3 | 1.38213 | 23.62
288.15 K, x1 = 0.35 | 1.3841 | 23.69
288.15 K, x1 = 0.4 | 1.38587 | 23.76
288.15 K, x1 = 0.45 | 1.38748 | 23.82
288.15 K, x1 = 0.5 | 1.38894 | 23.88
288.15 K, x1 = 0.55 | 1.39028 | 23.93
288.15 K, x1 = 0.6 | 1.39151 | 23.99
288.15 K, x1 = 0.65 | 1.39264 | 24.04
288.15 K, x1 = 0.7 | 1.39369 | 24.09
288.15 K, x1 = 0.75 | 1.39467 | 24.15
288.15 K, x1 = 0.8 | 1.39559 | 24.2
288.15 K, x1 = 0.85 | 1.39646 | 24.25
288.15 K, x1 = 0.9 | 1.39729 | 24.3
288.15 K, x1 = 0.95 | 1.39807 | 24.35
288.15 K, x1 = 1 | 1.3988 | 24.4
298.18 K, x1 = 0.05 | 1.36363 | 22.4
298.18 K, x1 = 0.1 | 1.36724 | 22.5
298.18 K, x1 = 0.15 | 1.37038 | 22.58
298.18 K, x1 = 0.2 | 1.37312 | 22.66
298.18 K, x1 = 0.25 | 1.37554 | 22.73
298.18 K, x1 = 0.3 | 1.37769 | 22.79
298.18 K, x1 = 0.35 | 1.37961 | 22.85
298.18 K, x1 = 0.4 | 1.38134 | 22.91
298.18 K, x1 = 0.45 | 1.38291 | 22.96
298.18 K, x1 = 0.5 | 1.38434 | 23
298.18 K, x1 = 0.55 | 1.38564 | 23.05
298.18 K, x1 = 0.6 | 1.38684 | 23.1
298.18 K, x1 = 0.65 | 1.38795 | 23.15
298.18 K, x1 = 0.7 | 1.38897 | 23.2
298.18 K, x1 = 0.75 | 1.38993 | 23.26
298.18 K, x1 = 0.8 | 1.39083 | 23.31
298.18 K, x1 = 0.85 | 1.39169 | 23.35
298.18 K, x1 = 0.9 | 1.3925 | 23.4
298.18 K, x1 = 0.95 | 1.39328 | 23.45
298.18 K, x1 = 1 | 1.39401 | 23.5
308.15 K, x1 = 0.05 | 1.35942 | 21.57
308.15 K, x1 = 0.1 | 1.36295 | 21.64
308.15 K, x1 = 0.15 | 1.36603 | 21.7
308.15 K, x1 = 0.2 | 1.36872 | 21.76
308.15 K, x1 = 0.25 | 1.3711 | 21.81
308.15 K, x1 = 0.3 | 1.37321 | 21.86
308.15 K, x1 = 0.35 | 1.3751 | 21.91
308.15 K, x1 = 0.4 | 1.3768 | 21.96
308.15 K, x1 = 0.45 | 1.37834 | 22
308.15 K, x1 = 0.5 | 1.37974 | –
308.15 K, x1 = 0.55 | 1.38102 | 22.04
308.15 K, x1 = 0.6 | 1.3822 | 22.08
308.15 K, x1 = 0.65 | 1.38329 | 22.13
308.15 K, x1 = 0.7 | 1.3843 | 22.17
308.15 K, x1 = 0.75 | 1.38524 | 22.22
308.15 K, x1 = 0.8 | 1.38613 | 22.27
308.15 K, x1 = 0.85 | 1.38698 | 22.31
308.15 K, x1 = 0.9 | 1.38779 | 22.36
308.15 K, x1 = 0.95 | 1.38857 | 22.41
308.15 K, x1 = 1 | 1.38931 | 22.45
318.15 K, x1 = 0.05 | 1.35545 | 20.65
318.15 K, x1 = 0.1 | 1.35888 | 20.72
318.15 K, x1 = 0.15 | 1.36186 | 20.78
318.15 K, x1 = 0.2 | 1.36447 | 20.83
318.15 K, x1 = 0.25 | 1.36679 | 20.88
318.15 K, x1 = 0.3 | 1.36884 | 20.94
318.15 K, x1 = 0.35 | 1.37068 | 20.99
318.15 K, x1 = 0.4 | 1.37233 | 21.03
318.15 K, x1 = 0.45 | 1.37383 | 21.08
318.15 K, x1 = 0.5 | 1.37519 | 21.12
318.15 K, x1 = 0.55 | 1.37644 | 21.17
318.15 K, x1 = 0.6 | 1.37759 | 21.21
318.15 K, x1 = 0.65 | 1.37865 | 21.26
318.15 K, x1 = 0.7 | 1.37964 | 21.3
318.15 K, x1 = 0.75 | 1.38056 | 21.35
318.15 K, x1 = 0.8 | 1.38143 | 21.4
318.15 K, x1 = 0.85 | 1.38226 | 21.45
318.15 K, x1 = 0.9 | 1.38306 | 21.5
318.15 K, x1 = 0.95 | 1.38384 | 21.55
318.15 K, x1 = 1 | 1.38458 | 21.6
